Patent US8344140B2, “18F-labelled folates” (Merck Eprova AG, priority 2007, dated 2013)

Legend:
[1] = in vitro plasma stability study, murine plasma; type: in vitro ADME; conditions: 37° C.
Description: (§1) The ^18F-click folate was employed in in vitro plasma stability studies and in metabolite studies using liver microsomes.
(§2) ^18F-click folate was incubated with both human and murine plasma at 37° C. in a shaking water bath. Aliquots were taken at different time points and analysed by HPLC.

[2] = in vitro plasma stability study, human plasma; type: in vitro ADME; conditions: 37° C.
Description: as §1, §2

[3] = metabolite study using human liver microsomes; type: in vitro ADME; conditions: 37° C., aliquots at 0, 5, 15 and 30 min
Description: as §1
(§3) Metabolites studies using human and murine liver microsomes were carried out at 37° C. over a time span of 0-30 min. Aliquots were taken at 0, 5, 15 and 30 min.

[4] = metabolite study using murine liver microsomes; type: in vitro ADME; conditions: 37° C., aliquots at 0, 5, 15 and 30 min
Description: as §1, §3

[5] = system: folate receptor-positive KB tumors; assay: in vivo PET imaging in nude mice bearing KB xenografts tumors; conditions: ~11 MBq injected; PET scans 15 min to 45 min post injection
Description: In vivo PET imaging using the ^18F-click folate was performed in nude mice bearing KB xenografts tumors. ˜11 MBq of the radiotracer were injected into each animal. In the blockade group 200 μg natural folic acid was injected 10 min prior to the radiotracer. The PET scans were acquired from 15 min to 45 min post injection.
The KB tumors could be imaged by PET using ^18F-click folate.
PET imaging using [^18F]FDG was performed with the same animals four days after the ^18F-click folate studies. ˜9 MBq of [^18F]FDG were injected into each animal. The PET scans were acquired from 30 min to 60 min post injection. […] Although [^18F]FDG is the most commonly used radiotracer in PET tumor imaging, it is known that [^18F]FDG is not suitable for the imaging of KB xenografts tumors (Bettio et al, J. Nucl. Med. […]; 47: 1153-60).
FIG. 4 show the PET images using ^18F-click folate (left hand side) in comparison to PET images using [^18F]FDG (right hand side), the arrows indicate the position of the KB xenografts tumors.

[6] = system: folate receptor-positive KB tumors; assay: ex vivo biodistribution in nude mice bearing KB xenografts tumors; conditions: ~2 MBq injected, 45 min post injection
Description: ^18F-click folate was applied in ex vivo biodistribution studies using eight nude mice bearing KB xenografts tumors. ˜2 MBq of the radiotracer were injected into each animal. In a blockade group (4 animals) […] natural folic acid was injected 10 min prior to the radiotracer. The animals were scarified 45 min post injection. […] Furthermore a specific uptake with 78% specific blockade was also found in the kidneys, which are known to express the folate receptor.

stability in plasma ([1]; HPLC analysis, 0-120 min): high stability
stability in plasma ([2]; HPLC analysis, 0-120 min): high stability
accumulation of radioactivity in the abdominal region (gallbladder, intestines) [5]: high accumulation
unspecific uptake in gallbladder, intestine and feces ([6]; points to hepatobiliary elimination): High unspecific uptake
SMILES: Nc1nc2ncc(CNc3ccc(C(=O)NC(CCC(=O)NCCCCn4cc(CCCC[18F])nn4)C(=O)O)cc3)nc2c(=O)[nH]1 (centres unmarked) [^18F-click folate, γ-(4-(4-(4-[^18F]fluorobutyl)-1,2,3-triazol-1-yl)butyl) folic acid amide]
defluorination or other radioactive degradation products in plasma ([1]; over a period of 0-120 min): No defluorination or other radioactive degradation products were detected
defluorination or other radioactive degradation products in plasma ([2]; over a period of 0-120 min): No defluorination or other radioactive degradation products were detected
radioactive metabolites or degradation in liver microsomes [3]: no radioactive metabolites or degradation
radioactive metabolites or degradation in liver microsomes [4]: no radioactive metabolites or degradation
tumor-to-background ratio [5]: low
specific blockade of radiotracer uptake in KB tumors ([6]; KB tumors, natural folic acid 10 min prior in blockade group): 94%
specific blockade of radiotracer uptake in kidneys ([6]; kidneys, natural folic acid 10 min prior in blockade group): 78%
